Results from patent publication US20230272077A1, “PD-1 SIGNAL INHIBITOR COMBINATION THERAPY” (KYOTO UNIVERSITY, priority 2015, published 2023).
Entries after “also recorded” stand apart in the source; their conditions may differ.

Legend:
MC38 = assay: Mouse therapy model, MC38-bearing mice (tumor volume, survival); format: in vivo; details: MC38-bearing mice; for antitumor effect when administered alone: reagent alone, no PD-L1 antibody, tumor volume; for enhancement of antitumor effect of PD-L1 antibody (tumor volume) / survival rate: reagent combined with PD-L1 antibody vs PD-L1 antibody alone; for animal survival, triple combination of mTOR activator, AMPK activator and PD-L1 antibody / antitumor effect of triple combination of mTOR activator, AMPK activator and PD-L1 antibody: both activators with PD-L1 antibody
Description: (§1) MC38 (5×10^5) and MethA (5×10^5) cells were intradermally injected on the right flank. MC38 was inoculated into C57BL/6 mice and MethA was inoculated into BALB/c mice. For monotherapy, mice were intraperitoneally injected with 150 μg of PD-L1 mouse antibody (1-111A) (prepared by the laboratory of the present inventors) 5 days after the tumor inoculation. Therapy with PD-L1 antibody alone was repeated three times every 5 days. For combination therapy, administration of PD-L1 antibody and chemical agents started 7 days after tumor injection. Chemical agents were injected at a regular interval of 2 days and PD-L1 antibody at a regular interval of 5 days (shown in FIG. 3b). Tumors were measured on every alternate day, and tumor volumes were calculated using the formula for typical ellipsoid, π×(length×breadth×height/6).
(§2) The following chemical reagents were used at the indicated concentrations for combination therapy. AMPK activator: A769662, 6 mg/kg (Abcam); mTOR activator: MHY1485, 3 μg/kg (Sigma-Aldrich); uncoupler: carbonylcyanide-p-trifluoromethoxyphenylhydrazone (FCCP), 1.2 mg/kg (Abcam); uncoupler: 2,4-Dinitrophenol (DNP), 1.7 mg/kg (Aldrich); SIRT1 activator: resveratrol, 0.5 mg/kg (Abcam); ROS scavenger: Mn (III) tetrakis (4-benzoic acid) porphyrin (MnTBAP), 1.25 mg/kg (Calbiochem); ROS generator: tert-butyl hydroperoxide solution (Luperox TBH70X), 200 μL/kg (Sigma-Aldrich); ATP synthase inhibitor: oligomycin, 250 μg/kg (Sigma-Aldrich); paraquat 2 mg/kg (Nakalai Tesque); oltipraz 1.9 mg/kg (Sigma); bezafibrate 1 mg/kg (ChemCruz).
All reagents were freshly prepared just before use. Each reagent was dissolved in the solvent indicated in the instructions. Note that the AMPK activator, mTOR activator, uncouplers and SIRT1 activator were prepared from fresh unused vials in each series of experiments. Dissolved reagents were diluted in PBS, and a 200 l aliquot was injected per mouse.
Murine colon adenocarcinoma MC38 cells (5×10^5) were inoculated into C57BL/6 mice. After 7 days, anti-PD-L1 antibody (1-111A, 150 μg) and AMPK inhibitor (Compound C: 200 μg in BBS, 200 μL) were administered intraperitoneally. Anti-PD-L1 antibody was administered 3 times at a regular interval of 6 days; Compound C (C.C) was administered 7 times at a regular interval 2 days.
MC38 cells (5×10^5) were inoculated into C57BL/6 mice. After 7 days, anti-PD-L1 antibody (1-111A, 150 μg) and PGC-1α/transcription factor complex activator (2-(4-{2-[(4-chlorobenzoyl)amino]ethyl}phenoxy)-2-methylpropanoic acid (bezafibrate): 10 ug in PBS, 200 ul) were administered intraperitoneally. Anti-PD-L1 antibody was administered 3 times at a regular interval of 6 days; bezafibrate was administered 7 times at a regular interval 2 days.

PGC-1α = PGC-1α expression (Western blotting, real-time RT-PCR); format: in vivo, mouse; details: combination therapy together with PD-L1 antibody
Description: RNA was isolated from CD8^+ T cells or tumor cells with the RNeasy Mini Kit (Qiagen), followed by cDNA synthesis by reverse transcription. Real-time PCR for PGC-1α was performed using the following primers: Forward […] (SEQ ID NO: 1) and Reverse […] (SEQ ID NO: 2). To analyze the expression levels of genes associated with apoptosis and mitochondrial energy metabolism, RT2 Profiler PCR Array Gene Expression Kit PAMM-012Z or PAMM-008Z (Qiagen) was used. The list of genes included in this assay can be found in www.sabiosciences.com/Apoptosis.php.
CD8^+ T cells were isolated using mouse CD8 Microbeads (Miltenyi Biotec). After washing with PBS twice, 2×10^6 cells were solubilized in a lysis buffer containing 30 mM Tris-HCl (pH.7.4), 150 mM NaCl, 10% glycerol, 0.1% SDS, 1% Triton-X-100, 0.05% Na-Doc, 5 mM EDTA (pH.8.0), protease inhibitor mixture (Roche Molecular Biochemicals) and phosphatase inhibitors (Nacalai Tesque). After measurement of protein concentrations by DC protein assay (Bio-Rad), 4 μg of proteins was mounted on 4 to 20% gradient Mini-PROTEAN TGX Gels (Bio-Rad) and electroblotted onto nitrocellulose membranes, which were then incubated in a blocking buffer of TBS containing 1% BSA. Primary antibody incubations were carried out overnight at 4° C. in blocking buffer. After washing, secondary antibody incubations were carried out at room temperature for 40 min in blocking buffer. Blots were developed with enhanced chemiluminescence (Amersham Pharmacia). Primary antibodies recognizing the following proteins were used: Phospho-mTOR (P-mTOR) (Cat #5536), Phospho-AMPKa (P-AMPK) (#2535), Phospho-p70 S6 Kinase (P-S6K) (#9205), 4E-BP1 (#9644), Phospho-Acetyl-CoA Carboxylase (P-ACC) (#3661) and SIRT1 (#9475). All the primary antibodies were obtained from Cell Signaling Technology. An antibody recognizing PGC-1α (SC-13067) was obtained from Santa Cruz.

tumor cells = assay: Phenotypic and transcription profile analysis of tumor cells from mice treated with reagent alone; set-up: species or system mouse; details: tumor cells from mice treated with reagent alone in vivo
From the text: FIG. 12. […] After enzymatic digestion, tumor cells were sorted with a cell isolation kit capable of excluding non-tumor cells. The isolated tumor cells were further purified with Aria and used in the following experiments. b) Tumor cells were stained with antibodies targeting PD-L1, MHC class I, CD155 (ligand of TIGIT), and VISTA or with dyes for mitochondrial mass, membrane potential, and superoxide. c) Expression levels of genes associated with mitochondrial energy metabolism and apoptosis were examined using RT^2 profiler PCR Kit.
For analyzing draining lymph nodes, cells from axillary, brachial, and inguinal lymph nodes on the right side of tumor-inoculated mice were harvested and mixed. Averaged cell numbers per one lymph node were used as absolute cell numbers. For tumor analysis, tumor tissues were minced into 2- to 3-mm pieces with scissors and digested with collagenase type IV (Thermo Fisher Scientific) using a gentle MACS Dissociator (Miltenyi Biotec). The numbers of tumor cells per mg were used as absolute numbers. Tumor cells were isolated from digested tumor tissues using a Tumor Cell Isolation Kit, mouse (Miltenyi Biotec). This kit purifies tumor cells by excluding lymphocytes, red blood cells, fibroblasts, endothelial cells and tumor-associated stromal cells. The resultant tumor cell population was further isolated/purified with FACS Aria (BD Biosciences). […]

MethA = assay: Mouse therapy model, MethA-transplanted BALB/c mice (tumor volume); format: in vivo; details: MethA in BALB/c mice, combined with PD-L1 antibody
Description: as §1, §2
MethA cells (5×10^5) were inoculated into BALB/c mice. After 7 days, anti-PD-L1 antibody (1-111A, 80 μg) and Foxo1 inhibitor (5-amino-7-(cyclohexylamino)-1-ethyl-6-fluoro-4-oxo-1,4-dihydroquinoline-3-carboxylic acid, Calbiochem) (2 mg/kg) were administered intraperitoneally.
Fibrosarcoma MethA (Cell Resource Center for Biomedical Research) cells (5×10^5) were inoculated into BALB/c mice. After 7 days, anti-PD-L1 antibody (1-111A, 60 μg) and Aminoleban (Otsuka Pharmaceutical, 400 μl/mouse) were administered.

T-bet and Eomes = T-bet and Eomes expression by flow cytometry in DLN CD8+ T cells; format: in vivo, mouse; details: combined with PD-L1 antibody
Description: (§3) FIG. 15. […] Data represent the means±SEM of five mice. *p<0.05, **p<0.01, one-way ANOVA.
(§4) The following antibodies recognizing the indicated antigens were used: CD44 (1M7), CD45.2 (104), CD45.1 (A20), CD8 (53-6.7), CD62L (MEL-14), T-bet (4B/O) and IFN-7 (XMG1.2), MHC class I (AF6-88.5), CD155 (Tx56) and VISTA (MIH63) from BioLegend; p-AMPK (EPR5683) from Ancam; p-mTOR (MRRBY), Eomes (Danllmag) and PD-L1 (M1H5) from eBioscience. All flow cytometry experiments were performed on a FACS Canto II (BD Biosciences) and analyzed using FlowJo software (FLOWJO, LLC). For assessment of intracellular phosphoproteins, cells were permeabilized with 0.5% Triton-X and fixed with 1.5% PFA before staining. Determination of mitochondrial mass, membrane potential, mitochondrial superoxide and cellular ROS was performed using MitoTracker Green, Mito-Tracker Deep Red, MitoSOX Red, and CellROX Green reagents, respectively (all from Life Technologies). These dyes were added to cells to a final concentration of 0.125 μM, 0.125 μM, 5.0 μM and 0.625 μM, respectively, and incubated at 37° C. in a 5% CO2 humidified incubator for 30 min.

IFN-γ = assay: Intracellular IFN-γ staining of CD8+ T cells from digested tumor tissues; format: in vivo, mouse; details: CD8+ T cells in tumors; combined with PD-L1 antibody
Description: as §3, §4

Oc1ccc(/C=C/c2cc(O)cc(O)c2)cc1 [Resveratrol, trans-3,5,4′-trihydroxystilbene]
antitumor effect when administered alone (MC38): no tumor growth inhibitory effect was observed | enhancement of antitumor effect of PD-L1 antibody (tumor volume) (MC38): remarkably reduced tumor sizes; also recorded: remarkable tumor inhibitory effect | survival rate (MC38): improved the survival rate

O=[N+]([O-])c1ccc(Nc2nc(N3CCOCC3)nc(N3CCOCC3)n2)cc1 [mTOR activator, 4,6-Di-4-morpholinyl-N-(4-nitrophenyl)-1,3,5-triazin-2-amine]
expression levels of PGC-1α protein and mRNA (PGC-1α): increased | animal survival, triple combination of mTOR activator, AMPK activator and PD-L1 antibody (MC38): improved animal survival | antitumor effect of triple combination of mTOR activator, AMPK activator and PD-L1 antibody (MC38): further enhanced the effect of PD-L1 antibody | enhancement of antitumor effect of PD-L1 antibody (tumor volume) (MC38): moderately augmented the efficacy of PD-1 blockade therapy in the early phase

CC(C)(C)OO [Luperox, tert-butyl hydroperoxide]
antitumor activity of triple combination of PD-L1 antibody, DNP and Luperox (MC38; DNP and Luperox both with PD-L1 antibody): stronger antitumor activity; also recorded: Antitumor effect is enhanced | antitumor effect when administered alone (MC38): no antitumor activity was observed | enhancement of antitumor effect of PD-L1 antibody (tumor volume) (MC38): remarkably enhanced the antitumor effect; also recorded: Synergistic effect | survival rate (MC38): improved the survival rate | changes in immune-regulatory surface markers and transcriptional profiles of tumor cells (tumor cells): no significant changes; also recorded: little effect on tumor cells in vivo

CCn1cc(C(=O)O)c(=O)c2c(N)c(F)c(NC3CCCCC3)cc21 [Foxo1 inhibitor, 5-amino-7-(cyclohexylamino)-1-ethyl-6-fluoro-4-oxo-1,4-dihydroquinoline-3-carboxylic acid]
enhancement of antitumor effect of PD-L1 antibody (tumor volume) (MethA): enhances the efficacy of anti-PD-L1 antibody therapy | enhancement of antitumor effect of PD-L1 antibody (tumor volume) (MethA; listed as AS1842856): Synergistic effect

N#Cc1c(O)c2c(-c3ccc(-c4ccccc4O)cc3)csc2[nH]c1=O [AMPK activator, 6,7-dihydro-4-hydroxy-3-(2′-hydroxy[1,1′-biphenyl]-4-yl)-6-oxo-thieno[2,3-b]pyridine-5-carbonitrile]
expression levels of PGC-1α protein and mRNA (PGC-1α): increased | animal survival, triple combination of mTOR activator, AMPK activator and PD-L1 antibody (MC38): improved animal survival | antitumor effect of triple combination of mTOR activator, AMPK activator and PD-L1 antibody (MC38): further enhanced the effect of PD-L1 antibody | enhancement of antitumor effect of PD-L1 antibody (tumor volume) (MC38): moderately augmented the efficacy of PD-1 blockade therapy in the early phase

C[n+]1ccc(-c2cc[n+](C)cc2)cc1.[Cl-].[Cl-] [paraquat, 1,1′-dimethyl-4,4′-bipyridinium dichloride]
enhancement of antitumor effect of PD-L1 antibody (tumor volume) (MethA): enhanced the antitumor effect of PD-L1 antibody | enhancement of antitumor effect of PD-L1 antibody (tumor volume) (MC38): enhanced the effect for PD-1 blockade

O=C(O)c1ccc(-c2c3nc(c(-c4ccc(C(=O)O)cc4)c4ccc([n-]4)c(-c4ccc(C(=O)O)cc4)c4nc(c(-c5ccc(C(=O)O)cc5)c5ccc2[n-]5)C=C4)C=C3)cc1.[Mn+3] [MnTBAP, Mn (III) tetrakis (4-benzoic acid) porphyrin]
effect of ROS scavenger on combination therapy using PD-L1 antibody and uncouplers (MC38; added to PD-L1 antibody + FCCP or DNP): inhibited

CC(C)(Oc1ccc(CCNC(=O)c2ccc(Cl)cc2)cc1)C(=O)O [bezafibrate, 2-(4-{2-[(4-chlorobenzoyl)amino]ethyl}phenoxy)-2-methylpropanoic acid]
Eomes expression (T-bet and Eomes): reduced Eomes | T-bet expression (T-bet and Eomes): increased T-bet; also recorded: activated T-bet; also recorded: up-regulated | enhancement of antitumor effect of PD-L1 antibody (tumor volume) (MC38): enhanced the tumor growth inhibitory effect of PD-L1 antibody; also recorded: synergize with PD-L1 antibody; also recorded: Synergistic effect | survival rate (MC38): improved the survival rate | enhancement of antitumor effect of PD-L1 antibody (tumor volume) (MC38; listed as PGC-1α/transcription factor complex activator): enhances the efficacy of anti-PD-L1 antibody therapy | IFN-γ production (IFN-γ): increased; also recorded: up-regulated
